For 86 molecules, melting point results are on record in a melting point compilation (Tetko et al.; mined from patent text by program, amines drawn as free bases though some values may be those of a salt).

Where only a bound is given, the exact number is not on record here.

A word on the melting point: it is the temperature, or range, at which the solid turns liquid. `CCCCCCCCCCCC1Cc2c(cccc2C(=O)O)N1` (racemic) showed a melting point of 105 to 108 °C.

In the case of `CCOCCOCCOCCOc1cc(OCCCCCCCCCCCCOc2ccccc2)cc(N(CC(=O)OC)CC(=O)OC)c1`, the melting point is under 24 °C.

Molecule `Cc1ccc(Cl)c(Nc2ccccc2-c2noc(=O)[nH]2)c1Cl` registered a melting point of 209 to 210 °C.

The molecule `CC(=O)N1CCc2c(sc(C)c2CCN2CCC(c3noc4ccc(F)cc34)CC2)C1` came in with a melting point of 167 to 172 °C.

`COc1cc(N)c(Cl)cc1C(=O)N[C@H]1CCN(CCNC(=O)N(C)C)C[C@H]1OC` (relative stereo) came in with a melting point of 206 °C.

In turn, `Cc1c(C(=O)Nc2ccc(Cl)c([N+](=O)[O-])c2)cnn1-c1ccc(Cl)cc1` registered a melting point of 221 to 225 °C.

For `O=C1OC(=O)c2c(F)cc(F)cc21`, the melting point lay within 87 to 89 °C.

In the case of `COc1cc(F)c(C)cc1C(=O)O`, the melting point fell in the range of 125 to 127 °C.

Regarding `CCOc1nc(Cl)nc2cscc12`, the melting point lay within 136 to 140 °C.

On to `Clc1cccc(C2=CCN(Cc3ccccc3)CC2)n1`, for which the melting point was 100 to 102 °C.

As for `COc1cc(C(=O)NS(=O)(=O)c2ccccc2Cl)ccc1Cc1cn(C)c2ccc(CC(C)NC(=O)N(C)C)cc12` (stereo unspecified), the melting point was in the range of 131 to 136 °C.

Molecule `O=C1NN(C(=O)Nc2ccc(OCc3ccccc3)cc2)C(c2ccccc2)C1c1ccccc1` (stereo unspecified) returned a melting point of 127 to 130 °C.

For the molecule `CS(=O)(=O)Nc1cccc(Nc2nc(NCC(O)CO)c3nc[nH]c3n2)c1` (stereo unspecified), the melting point lay in the range of 164 to 168 °C.

In turn, `CCc1c(C)[nH]c(=O)c(N(C)C)c1Cc1cc(C)cc(C)c1` yielded a melting point of 229 to 230 °C.

Molecule `Cn1c(I)nc2c(C(F)(F)F)nc(NCCc3ccccc3)nc21` had a melting point of 139 to 142 °C.

On to `COc1cc2c(c3c1OC(C)(C)C3)C(c1cccc(NC(=O)NCCCl)c1)=NC(C)(C)C2`, for which the melting point lay within 147 to 150 °C.

Molecule `CCCCC(=O)N(Cc1ccc2c(c1)CCc1ccccc1N2CC#N)C(C(=O)O)C(C)C` (stereo unspecified) registered a melting point of 82 °C.

Consider `c1ccc(-c2cc(OCCN3CCOCC3)[nH]n2)cc1`, for which the melting point turned out to be 100 °C.

In turn, `Cc1cccc(N2CCN(CCCCc3ccc(C4CCC(=O)N4)cc3)CC2)c1` (stereo unspecified) had a melting point of 114 to 116 °C.

`CCCc1c(O)cc(O)c(C(=O)CCc2ccc(O)cc2)c1O` gave a melting point of 216 to 218 °C.

Turning to `CN1Cc2c(CO)ncn2-c2ccc(F)cc2C1=O`, the melting point lay in the range of 221 to 223 °C.

For the molecule `CCc1cccc(CC)c1NC(=O)CC1c2ccccc2Oc2ccccc21`, the melting point is 228 to 230 °C.

Molecule `COCC1COc2cc3ncnc(Nc4cc(Cl)cc(Cl)c4)c3cc2O1` (stereo unspecified) yielded a melting point of 269 to 274 °C.

In turn, `CC1(C)Oc2ccc([N+](=O)[O-])cc2C(n2ccccc2=O)C1(C)O` (stereo unspecified) yielded a melting point of 214 °C.

For the molecule `O=C(O)CCC(=O)c1cccc([N+](=O)[O-])c1`, the melting point lay within 162 to 164 °C.

Turning to `Fc1cc(Cl)c2ccc(C(F)(F)F)cc2n1`, the melting point lay in the range of 94 to 95 °C.

With `COc1ccc(N2CCN(c3c(C)c(C)c4c(c3C)CC(C)(COC=O)O4)CC2)cc1` (stereo unspecified), the melting point was in the range of 120 to 124 °C.

In turn, `c1ccc(Sc2ccc[nH]2)cc1` gave a melting point of 86 to 87 °C.

Regarding `CCCc1nc(S)nc(O)c1Cc1ccc(-c2ccccc2C#N)cc1`, the melting point is 191 °C.

`CC(=O)Nc1nc(CCc2ccc(CON3C(=O)c4ccccc4C3=O)cc2)cs1` gave a melting point of 225 to 226 °C.

The molecule `Cc1ccc(S(=O)(=O)Nc2ccc(F)cc2[N+](=O)[O-])cc1` had a melting point of 118 °C.

As to `NC(=O)C(CCc1cc(Cl)ccc1N1CCCCC1)c1ccc(C(=O)O)cc1` (stereo unspecified), the melting point is 192 to 195 °C.

In turn, `Cc1ccccc1N1CCc2c(C)nc3c(O)cccc3c21` gave a melting point of 144 to 146 °C.

`OC1(c2ccc(Cl)cc2)CCN(CCNC(c2ccccc2)c2ccccc2)CC1` displayed a melting point of 114 °C.

Molecule `COCc1cnc2c(NC(=O)c3ccccc3C(F)(F)F)cccc2c1N1CCN(C)C1=O` displayed a melting point of 156 °C.

Molecule `COc1cc(OCCCN2CCOCC2)c(C=CC(=O)c2ccc(S(N)(=O)=O)cc2)cc1-c1cccs1` came in with a melting point of 193 to 196 °C.

For `O=C(N[C@@H]1CN2CCC1CC2)c1cccc2c1cc1n2CCCC1`, the melting point was in the range of 163 to 164 °C.

As to `N#Cc1ccc(CN(N)c2ccc(Br)cc2)cc1`, the melting point came to 114 °C.

Molecule `CC(C)OCCCNc1c([N+](=O)[O-])cnc2cccnc12` had a melting point of 62.5 to 63.5 °C.

`NC(=O)NCc1cc2c(Oc3ccc(Cl)cc3)cncc2s1` came in with a melting point of 202 to 204 °C.

`CC(C(=O)NC(C)(C#N)C(C)C)c1ccc(Br)cc1` (stereo unspecified): the melting point lay within 98 to 99 °C.

Turning to `O=c1[nH]c2ccc(C3=NOC(CN4CCC(O)(Cc5ccc(F)cc5)CC4)C3)cc2o1` (stereo unspecified), the melting point was in the range of 195 to 204 °C.

In the case of `CCC(=O)NCCC1CNc2ccc3c(c21)CCO3` (stereo unspecified), the melting point was in the range of 96 to 98 °C.

As for `Nc1cc(Cl)cc(Cl)c1C(=O)NCc1cccc(F)c1`, the melting point fell in the range of 79 to 81 °C.

For `CC(=O)c1cccc(NC(=O)NCC(=O)N(CC(=O)N2CCCc3ccccc32)c2ccccc2)c1`, the melting point worked out at 130 °C.

Take `COCc1nnc(-c2cccnc2)n1-c1c(Cl)c(Cl)cc2[nH]c(=O)c(=O)[nH]c12`: the melting point was 222 to 224 °C.

Regarding `Cc1oc(-c2ccccc2)nc1CCOc1ccc(C[C@@H](C(=O)O)N2CCN(c3cccc(Cl)c3)CC2)cc1`, the melting point was 138 to 139 °C.

The molecule `COc1cccc(C=C2c3ccccc3CCc3ccccc32)c1F` had a melting point of 149 °C.

Take `CCCCCCCc1ncc(CO)[nH]1`: the melting point lay in the range of 82 to 84 °C.

The molecule `CC(Br)C(=O)c1ccc(CN2C(=O)c3ccccc3C2=O)s1` (stereo unspecified) gave a melting point of 127 to 130 °C.

As for `CCOC(=O)c1scc2c1ccc1cn[nH]c12`, the melting point is 124 to 125 °C.

Take `O=C(CCc1ccccc1)c1cccnc1Nc1ccc(F)cc1`: the melting point is 100 to 102 °C.

On to `COC(=O)CCc1cc2cc(Cl)ccc2n1S(=O)(=O)c1ccc(F)cc1`, for which the melting point lay in the range of 129 to 131 °C.

`CCNc1cc(NS(=O)(=O)c2ccc(N)cc2)nc(NCC)n1` came in with a melting point of 245 to 250 °C.

On to `N#CCc1cn(Cc2ccc(OCc3ccccc3)cc2)nc1-c1ccc(F)cc1`, for which the melting point lay in the range of 86 to 87 °C.

`CC(C)NC1=NS(=O)(=O)c2ccc(CC#N)cc2N1` yielded a melting point of 195 to 203 °C.

Take `CCc1cccc(C)c1CNc1cc(CO)cn2nc(C)nc12`: the melting point was found to be 180 °C.

In turn, `COc1cc(N(C)C)nc(NC(=O)NS(=O)(=O)c2ccccc2CCC(F)(F)F)n1` showed a melting point of 183 to 184 °C.

On to `COc1ccc(S(=O)(=O)Nc2ccccc2NC(=O)c2cccs2)cc1`, for which the melting point fell in the range of 136 to 137 °C.

In the case of `CCCCCCCc1ccc(CCCC(N)(CO)CCO)cc1` (stereo unspecified), the melting point lay within 68 to 71 °C.

Molecule `CCCC(=O)n1nc(-c2ccncc2)nc1-c1ccncc1` returned a melting point of 116 to 118 °C.

For `Nc1ncnc2c1cnn2C1OC(CO)C(O)C1O` (stereo unspecified), the melting point was 253 °C.

For `COC(=O)c1ccc(C(O)c2ccc(C(=O)OC)cc2)cc1`, the melting point came out at 116 °C.

As for `CCN(CC)S(=O)(=O)c1ccc(Oc2ccc(S(=O)(=O)C(F)(F)F)cc2)cc1`, the melting point lay within 83 to 84 °C.

In the case of `CC(C)(C)OC(=O)N1CCC(Oc2cccc3[nH]ncc23)C1` (stereo unspecified), the melting point lay in the range of 196 to 198 °C.

Consider `c1ccc(-c2cc3nccnc3[nH]2)nc1`, for which the melting point lay in the range of 234 to 235 °C.

In turn, `O=C(NCCO)c1cccc(-c2cccc3cc(Cc4cc(F)cc(Cl)c4)sc23)n1` returned a melting point of 139 to 140 °C.

Molecule `CCOC(=O)c1c(CN(CC)CC)nc2sc3c(c2c1-c1ccc(OC)c(OC)c1)CCN(C(=O)c1ccc(Cl)cc1)C3` showed a melting point of 96 to 98 °C.

Molecule `Cc1ccc2c(c1)c(N1CCN(C(=O)c3cccs3)CC1)c(C#N)c(=O)n2Cc1ccc(F)cc1` had a melting point of 274 °C.

On to `COc1ccc(C#Cc2cc(Cl)cc3c2OC(CC(F)(F)F)C(C(=O)O)=C3)cc1` (stereo unspecified), for which the melting point is 218 to 219 °C.

Molecule `COc1cc(Cc2cnc(N)nc2N)cc(-c2ccc(CO)cc2)c1OC` yielded a melting point of 86 °C.

`N#Cc1cccnc1N1CCN(CC(=O)Nc2ccc(F)c(C(F)(F)F)c2)CC1` had a melting point of 120 to 122 °C.

On to `O=C(O)c1ccc(S(=O)(=O)CCO)c([N+](=O)[O-])c1`, for which the melting point lay within 190 to 192 °C.

Molecule `O=C(OCC1OC(n2ccc(=O)[nH]c2=O)C(OC(=O)c2ccccc2)C1OC(=O)c1ccccc1)c1ccccc1` (stereo unspecified) had a melting point of 143 to 144 °C.

Consider `COc1ccc(Cl)cc1N1C(=O)NC(=O)C1c1ccccc1` (stereo unspecified), for which the melting point was determined as 200 °C.

For `Cc1noc(NS(=O)(=O)c2ccccc2-c2ccc(-c3ncco3)cc2CN(C)C(=O)c2ccc(F)c(F)c2)c1C`, the melting point is 122 to 128 °C.

With `COc1cc(/C=C(\C#N)c2c[nH]c3ccc(OC)cc23)cc(OC)c1`, the melting point was 141 °C.

Consider `CN1CCN(c2ccccc2C=C2C(=O)N(Cc3ccc(Cl)c(Cl)c3)c3ccccc32)CC1`, for which the melting point fell in the range of 120 to 124 °C.

For `COc1cc2c(cc1Cl)CC(=O)NN=C2c1ccc([N+](=O)[O-])cc1`, the melting point was 258 to 262 °C.

As for `COC[C@@H](C)n1cc(Cl)nc(N2CCc3cc(Br)cc(Br)c32)c1=O`, the melting point was in the range of 119 to 120 °C.

Take `CC(=O)N[C@H]1C=C[C@@H](CO)C1`: the melting point is 77 to 80 °C.

For the molecule `CCN1C(=O)C(NC(=O)C(F)(F)F)CCc2c1ccc(Nc1ncc(Cl)c(N[C@@H]3CCCC[C@H]3NS(C)(=O)=O)n1)c2OC` (stereo partly specified), the melting point was in the range of 160 to 162 °C.

As to `COc1cc(Nc2c(C#N)cnc3cc(-c4ccc(CCl)cc4)ccc23)c(Cl)cc1Cl`, the melting point is 236 to 239 °C.

In turn, `CC12C=CC(=O)C=C1CCC1C2C(O)CC2(C)C(C(=O)CO)=CCC12` (stereo unspecified) displayed a melting point of 213 to 215 °C.

For `CS(=O)(=O)c1ncc2cc(Oc3ccccc3F)c(=O)n(-c3ccc(F)cc3)c2n1`, the melting point lay in the range of 82.3 to 91.5 °C.

In the case of `CCOC(=O)c1cn(C2CC2)c2c(C)c(F)c(F)cc2c1=O`, the melting point lay within 220 to 221 °C.
